Measurements reported in article PMC11876601 (Molecular Systems Biology, 2025).
Values joined by “and” are separate entries in the source; they are usually repeats but may differ in a detail not shown here. Identical values can stand only once. Like-named read-outs stand apart in the source and are kept apart here.

Tested on: AsPC-1 cells
Assay: Cell proliferation assay, chemodrug + ATR inhibitor (Incucyte confluence, 72 h);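 note: underlying read-out for every value is AsPC-1 confluence after 72 h incubation at 37 °C and 5% CO2, divided by that well's starting confluence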
Details: for Curve slope / Curve bottom / Curve top: fitted dose-response curve; for Curve bottom / Curve top: relative response; for EC50: Homo sapiens
[1] = AsPC1, Experiment ATRi (ATR inhibitor alone)
[2] = AsPC1, Experiment GEM+ATRi_dose1
[3] = AsPC1, Experiment GEM+ATRi_dose2
[4] = AsPC1, Experiment GEM+ATRi_dose3

C[C@@H]1COCCN1c1cc(C2([S@](C)(=N)=O)CC2)nc(-c2cc[nH]c3nccc2-3)n1 [Ceralasertib]
Curve slope [1]: 2.93 and 3.34 and 3.10 | Curve bottom [1]: 1.16 and 0.93 and 0.99 | Curve top [1]: 0.45 and 0.34 and 0.35 | Curve slope [2]: 1.26 and 1.52 and 1.58 | Curve bottom [2]: 1.03 and 0.96 and 0.97 | Curve top [2]: 0.53 and 0.41 and 0.45 | Curve bottom [3]: 1.06 and 0.94 and 0.90 | Curve top [3]: 0.50 and 0.38 and 0.42 | Curve slope [4]: 1.68 and 1.97 | Curve bottom [4]: 0.98 | Curve top [4]: 0.46 and 0.35 and 0.39 | Raw data (confluence at 72 h/confluence at 0 h) (Ceralasertib experiment, replicate R1, titrated drug dose 3 nM): 3.36 | Raw data (confluence at 72 h/confluence at 0 h) (Ceralasertib experiment, replicate R1, titrated drug dose 10 nM): 3.44 | Raw data (confluence at 72 h/confluence at 0 h) (Ceralasertib experiment, replicate R1, titrated drug dose 30 nM): 3.6 | Raw data (confluence at 72 h/confluence at 0 h) (Ceralasertib experiment, replicate R1, titrated drug dose 100 nM): 3.35 | Raw data (confluence at 72 h/confluence at 0 h) (Ceralasertib experiment, replicate R1, titrated drug dose 300 nM): 3.69 | Raw data (confluence at 72 h/confluence at 0 h) (Ceralasertib experiment, replicate R1, titrated drug dose 1000 nM): 3.19 | Raw data (confluence at 72 h/confluence at 0 h) (Ceralasertib experiment, replicate R1, titrated drug dose 3000 nM): 1.77 | Raw data (confluence at 72 h/confluence at 0 h) (Ceralasertib experiment, replicate R1, titrated drug dose 10000 nM): 1.38 | Raw data (confluence at 72 h/confluence at 0 h) (Ceralasertib experiment, replicate R2, titrated drug dose 3 nM): 3.66 | Raw data (confluence at 72 h/confluence at 0 h) (Ceralasertib experiment, replicate R2, titrated drug dose 10 nM): 3.73 | Raw data (confluence at 72 h/confluence at 0 h) (Ceralasertib experiment, replicate R2, titrated drug dose 30 nM): 3.9 | Raw data (confluence at 72 h/confluence at 0 h) (Ceralasertib experiment, replicate R2, titrated drug dose 100 nM): 2.91 | Raw data (confluence at 72 h/confluence at 0 h) (Ceralasertib experiment, replicate R2, titrated drug dose 300 nM): 3.91 | Raw data (confluence at 72 h/confluence at 0 h) (Ceralasertib experiment, replicate R2, titrated drug dose 1000 nM): 3.25 | Raw data (confluence at 72 h/confluence at 0 h) (Ceralasertib experiment, replicate R2, titrated drug dose 3000 nM): 1.61 | Response (GEM 0 nM, ATRi 100 nM): 3.13 | Response (GEM 0 nM, ATRi 300 nM): 3.19 | Response (GEM 0 nM, ATRi 1000 nM): 3.06 | Response (GEM 1 nM + ATRi 100 nM): 3.00 | Response (GEM 1 nM + ATRi 300 nM): 3.18 | Response (GEM 1 nM + ATRi 1000 nM): 2.76 | Response (GEM 3 nM + ATRi 100 nM): 3.15 | Response (GEM 3 nM + ATRi 300 nM): 3.26 | Response (GEM 3 nM + ATRi 1000 nM): 2.99 | Response (GEM 10 nM + ATRi 100 nM): 2.74 | Response (GEM 10 nM + ATRi 300 nM): 3.12 | Response (GEM 10 nM + ATRi 1000 nM): 2.13 | Response (GEM 30 nM + ATRi 100 nM): 2.24 | Response (GEM 30 nM + ATRi 300 nM): 2.10 | Response (GEM 100 nM + ATRi 100 nM): 1.89 | Response (GEM 100 nM + ATRi 1000 nM): 1.42 | Response (GEM 300 nM + ATRi 100 nM): 1.67 | Response (GEM 300 nM + ATRi 300 nM): 1.55 | Response (GEM 1000 nM + ATRi 100 nM): 1.60 | Response (GEM 1000 nM + ATRi 300 nM): 1.47 | Response (GEM 3000 nM + ATRi 100 nM): 1.61 | Response (GEM 3000 nM + ATRi 300 nM): 1.44 | EC50 (ASPC1, 72 h, AsPC1, Experiment ATRi (ATR inhibitor alone), single replicates R1-R3): 1810 nM | EC50 (ASPC1, 72 h, read-out: EC50 (cell growth), ATR inhibitor as single agent): 1720 nM | EC50 (ASPC1, 72 h, read-out: EC50 mean [nM], AsPC1, Experiment ATRi (ATR inhibitor alone), mean of replicates): 1720 nM | EC50 (ASPC1, 72 h, read-out: pEC50, AsPC1 (converted), Experiment ATRi (ATR inhibitor alone), single replicates R1-R3): 1820 nM | EC50 (ASPC1, read-out: EC50 mean [nM], AsPC1, Experiment ATRi (ATR inhibitor alone), mean of replicates): 1720 nM | Response (experiment ATRi, GEM 0 nM, ATRi 100 nM, AsPC1, replicates R2, R3): 1.95 | Response (experiment GEM+ATRi_dose1, GEM 0 nM, ATRi 100 nM, AsPC1, replicates R2, R3): 3.76 and 3.38 | Response (experiment GEM+ATRi_dose1, GEM 1 nM, ATRi 100 nM, AsPC1, replicates R2, R3): 3.75 and 3.44 | Response (experiment GEM+ATRi_dose1, GEM 3 nM, ATRi 100 nM, AsPC1, replicates R2, R3): 3.76 and 3.47 | Response (experiment GEM+ATRi_dose1, GEM 10 nM, ATRi 100 nM, AsPC1, replicates R2, R3): 3.43 | Response (experiment GEM+ATRi_dose1, GEM 30 nM, ATRi 100 nM, AsPC1, replicates R2, R3): 2.86 and 2.80 | Response (experiment GEM+ATRi_dose1, GEM 100 nM, ATRi 100 nM, AsPC1, replicates R2, R3): 1.90 and 2.07 | Response (experiment GEM+ATRi_dose1, GEM 300 nM, ATRi 100 nM, AsPC1, replicates R2, R3): 1.72 and 1.75 | Response (experiment GEM+ATRi_dose1, GEM 1000 nM, ATRi 100 nM, AsPC1, replicates R2, R3): 1.62 and 1.67 | Response (experiment GEM+ATRi_dose1, GEM 3000 nM, ATRi 100 nM, AsPC1, replicates R2, R3): 1.55 and 1.53 | Response (experiment GEM+ATRi_dose2, GEM 0 nM, ATRi 300 nM, AsPC1, replicates R2, R3): 3.86 and 3.56 | Response (experiment GEM+ATRi_dose2, GEM 1 nM, ATRi 300 nM, AsPC1, replicates R2, R3): 3.53 and 2.33 | Response (experiment GEM+ATRi_dose2, GEM 3 nM, ATRi 300 nM, AsPC1, replicates R2, R3): 3.61 and 3.55 | Response (experiment GEM+ATRi_dose2, GEM 10 nM, ATRi 300 nM, AsPC1, replicates R2, R3): 3.45 and 3.38 | Response (experiment GEM+ATRi_dose2, GEM 30 nM, ATRi 300 nM, AsPC1, replicates R2, R3): 2.30 | Response (experiment GEM+ATRi_dose2, GEM 100 nM, ATRi 300 nM, AsPC1, replicates R2, R3): 1.61 | Response (experiment GEM+ATRi_dose2, GEM 300 nM, ATRi 300 nM, AsPC1, replicates R2, R3): 1.48 and 1.53 | Response (experiment GEM+ATRi_dose2, GEM 1000 nM, ATRi 300 nM, AsPC1, replicates R2, R3): 1.52 and 1.48 | Response (experiment GEM+ATRi_dose2, GEM 3000 nM, ATRi 300 nM, AsPC1, replicates R2, R3): 1.45 | Response (experiment GEM+ATRi_dose3, GEM 0 nM, ATRi 1000 nM, AsPC1, replicates R2, R3): 3.10 and 2.81 | Response (experiment GEM+ATRi_dose3, GEM 1 nM, ATRi 1000 nM, AsPC1, replicates R2, R3): 3.14 and 2.98 | Response (experiment GEM+ATRi_dose3, GEM 3 nM, ATRi 1000 nM, AsPC1, replicates R2, R3): 2.92 | Response (experiment GEM+ATRi_dose3, GEM 10 nM, ATRi 1000 nM, AsPC1, replicates R2, R3): 2.52 and 2.34 | Response (experiment GEM+ATRi_dose3, GEM 30 nM, ATRi 1000 nM, AsPC1, replicates R2, R3): 1.76 and 1.67 | Response (experiment GEM+ATRi_dose3, GEM 100 nM, ATRi 1000 nM, AsPC1, replicates R2, R3): 1.44 | Response (experiment GEM+ATRi_dose3, GEM 1000 nM, ATRi 1000 nM, AsPC1, replicates R2, R3): 1.42 | Raw data (confluence at 72 h/confluence at 0 h) (titrated drug dose 3 nM, replicate R3, experiment (ATRi) Ceralasertib, AsPC-1, 72 h): 3.28 | Raw data (confluence at 72 h/confluence at 0 h) (titrated drug dose 10 nM, replicate R3, experiment (ATRi) Ceralasertib, AsPC-1, 72 h): 3.61 | Raw data (confluence at 72 h/confluence at 0 h) (titrated drug dose 30 nM, replicate R3, experiment (ATRi) Ceralasertib, AsPC-1, 72 h): 3.58 | Raw data (confluence at 72 h/confluence at 0 h) (titrated drug dose 300 nM, replicate R3, experiment (ATRi) Ceralasertib, AsPC-1, 72 h): 3.61 | Raw data (confluence at 72 h/confluence at 0 h) (titrated drug dose 1000 nM, replicate R3, experiment (ATRi) Ceralasertib, AsPC-1, 72 h): 3.17 | Raw data (confluence at 72 h/confluence at 0 h) (titrated drug dose 3000 nM, replicate R3, experiment (ATRi) Ceralasertib, AsPC-1, 72 h): 1.6 | Raw data (confluence at 72 h/confluence at 0 h) (titrated drug dose 10000 nM, replicate R3, experiment (ATRi) Ceralasertib, AsPC-1, 72 h): 1.25
